# According to patent publication US9814732B2, “Ulipristal acetate for prevention and treatment of breast tumors” (LABORATOIRE HRA-PHARMA, priority 2012, dated 2017):
# Tests used:
# T-47D cells = experiment: Apoptosis, sub-G1 quantification by flow cytometry in T-47D cells; format: cell-based, human; settings: 48 h
# Method: After seeding, cells were cultured for 24 h in serum and phenol red free medium. Then treatments were carried out in a phenol red free medium containing 5% dextran-charcoal stripped serum. Cells were treated with P or DEX (100 nM), alone or in combination with UPA, RU (1 nM to 1 μM) or CDB-3877 (100 nM). Control cells were treated with ethanol, at […] 1:1000 final ethanol concentration alone as vehicle or E2 (10 nM).
# After 96 h or 48 h of hormonal treatment, respectively, for HBE or MCF-7 and T-47D cells, cells were washed in PBS, matrix dissociated with accutase enzyme (PAA laboratory, Les Mureaux, France), and centrifuged 5 minutes at 1350 rpm. Cells were fixed and frozen at −20° C. in 70% ethanol. Before analysis, cells were washed in PBS and stained with 10 μg/ml propidium iodide in PBS (containing 0.835 U/ml RNase A) (Sigma, St Quentin Fallavier, France). For each sample at least 10 000 cells were counted in a BD LSR II flow cytometer (BD Biosciences, Le Pont de Claix, France). After gating out doublets and debris, cycle distribution was analyzed using the ModFit LT software (Verity Software House, USA).
# [1] = Hormone concentrations in serum of pellet-treated athymic mice; format: in vivo; settings: female, NMRI nu/nu athymic, mouse, other: steroid pellets grafted onto the neck, 20 mg pellet (P from day 14, UPA from day 1), day 28, read-out: concentration in mice serum (mean±SEM)
# Method: (§1) Four weeks old ovariectomized female NMRInu/nu 20 athymic mice were purchased from Janvier laboratory (Le Genest Saint Isle, France). Breast tissues samples were obtained from 6 women (aged 29-42 years). Human mammary gland tissue was cut into 2×2×2 mm fragments and 4 fragments were then subcutaneously xenografted onto the back of 4 mice per group. Four treatment groups were performed: control, E2, E2+P and E2+P+UPA. Treatments were administered by grafting steroid pellets onto the neck of each mouse. The experimental conditions were initially determined by using a dose range of hormones mixed with cholesterol into the pellets. Blood sample assays were performed after 2 weeks and 4 weeks of treatment to measure plasmatic hormonal concentrations. Finally, the dose of 0.3 mg for E2 and 20 mg for P and UPA were used, as it provides the expected blood concentrations. For the control groups, pellets containing only cholesterol were used. To reproduce menstrual cycle conditions, mice were grafted on the first day of experiment with cholesterol, E2 and/or UPA containing pellets and on the fourteen day with cholesterol or progesterone containing pellets in control and E2 groups, or in E+P and E2+P+UPA groups, respectively. Twenty eight days after the start of experiment, mice were sacrificed. Blood was collected for each mouse, and serum was frozen at −20° C. until hormone concentrations
# Estradiol was measured by radioimmunoassay using Clinical Assays Estradiol-2 (Sorin Biomedica Diagnostics SpA, Saluggia, Italia). Progesterone levels were evaluated by UPLC-MSMS using Acquity UPLC and Quattro Premier XE (Waters, Milford Mass., USA).
# UPA concentrations were measured using LC-MS/MS technique by MPI Research (State College, Pa., USA).
# GR = target: T1, GR (Homo sapiens, UniProt P04150); experiment: GRE-Luc reporter gene transactivation in MCF-7 cells; format: cell-based; design: endogenous in cells; host or cells: MCF-7; settings: MCF7, DEX 100 nM, test compound 100 nM, read-out: inhibition of DEX-induced luciferase transactivation (GRE-Luc)
# T1 sequence (P04150 1-777): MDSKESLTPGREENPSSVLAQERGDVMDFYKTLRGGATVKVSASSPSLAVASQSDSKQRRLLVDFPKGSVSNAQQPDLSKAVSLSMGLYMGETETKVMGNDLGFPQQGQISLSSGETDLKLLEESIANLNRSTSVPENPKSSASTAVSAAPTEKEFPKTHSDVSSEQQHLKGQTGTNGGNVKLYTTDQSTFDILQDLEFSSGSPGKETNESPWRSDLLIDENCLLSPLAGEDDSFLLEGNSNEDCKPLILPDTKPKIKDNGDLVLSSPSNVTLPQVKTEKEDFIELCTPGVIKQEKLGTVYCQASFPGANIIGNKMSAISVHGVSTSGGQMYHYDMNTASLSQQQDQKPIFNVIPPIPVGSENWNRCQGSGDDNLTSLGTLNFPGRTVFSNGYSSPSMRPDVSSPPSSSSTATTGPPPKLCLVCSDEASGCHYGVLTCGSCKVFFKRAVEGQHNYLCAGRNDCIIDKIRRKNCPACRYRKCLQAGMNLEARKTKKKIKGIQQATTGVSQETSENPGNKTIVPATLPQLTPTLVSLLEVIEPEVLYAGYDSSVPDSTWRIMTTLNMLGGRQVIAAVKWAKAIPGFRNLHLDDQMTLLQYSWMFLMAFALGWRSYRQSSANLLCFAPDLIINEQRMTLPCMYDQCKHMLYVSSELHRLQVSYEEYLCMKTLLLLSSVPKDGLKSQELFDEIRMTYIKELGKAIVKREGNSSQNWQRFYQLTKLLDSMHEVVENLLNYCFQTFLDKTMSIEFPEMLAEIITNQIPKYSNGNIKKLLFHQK
# [2] = system: normal human breast tissues xenografts; experiment: Ki67 mitotic index in normal human breast tissue xenografted in athymic mice; format: in vivo; settings: E2+P+UPA vs E2 and E2+P groups, lobules and ducts, UPA 20 mg pellet, 28 days
# Excerpt: Breast tissues samples were obtained from 6 women (aged 29-42 years) undergoing surgery for reduction mammoplasty, with their informed consent according to the French law on clinical experimentation.
# as §1
# Mitotic index was calculated using the Ki67 antibody, and was determined for each breast tissue grafted into mice. Immunohistochemical analyses were performed using the BOND-MAX workstation (Leica, Nanterre, France). Paraffin sections of breast tissue xenografts were de-waxed and rehydrated before antigen retrieval using citrate retrieval solution (pH 6.0) for Ki67 antibody or EDTA retrieval solution (pH 9.0) for PR and ERalpha antibodies, for 30 min. […]
structure (smiles),measurement,setting,value
"CC(=O)O[C@]1(C(C)=O)CCC2C3CCC4=CC(=O)CCC4=C3[C@@H](c3ccc(N(C)C)cc3)C[C@@]21C (some centres unmarked) [UPA, 17[…]-acetoxy-11[…]-[4-N,N-dimethylamino-phenyl)-19-norpregna-4,9-diene-3,20-dione]","cell apoptosis (sub-G1 percentage), compound alone",T-47D cells; 100 nM,had no apoptotic or survival properties by itself
same,effect of UPA on P-mediated apoptosis,T-47D cells; P 100 nM + UPA 100 nM,tended to inhibit this effect
same,concentration at 28 days,[1],63.5 ± 10.5 ng/mL
same,inhibition at 0.1 µM,GR,59 ± 3.4%
same,proliferation rate (Ki67) of normal epithelial breast cells,[2],does not significantly influence the proliferation rate
